Reference: patent publication US11926826B2, “Twist signaling inhibitor compositions and methods of using the same” (City of Hope, priority 2016, dated 2024)

What was measured:
[1] = system: Ovcar8-IP tumors; assay: Ovcar8-IP intraperitoneal tumor model in NSG mice, MSN-siRNA with or without cisplatin; type: in vivo; conditions: siRNA alone, without cisplatin
Method: Animal Studies. The animal studies conducted in these experiments were done in accordance with a protocol approved by the Institutional Animal Care and Use Committee at the City of Hope Beckman Research Institute. A total of 48 female NOD.Cg-Prkdc^scidIl2rg^tm1Wj1/SzJ (NSG) mice (The Jackson Laboratory, Bar Harbor, ME) were used. Ten week old (on average) mice were administered an intraperitoneal injection (IP) of 2.5×10^6 Ovcar8-IP cells in 200 μl of RPMI media. For all studies, mice were placed into four groups: MSN-siQ, MSN-siQ+cisplatin, MSN-si419H, and MSN-si419H+cisplatin (n=4 or n=8). Previous reports show no cellular uptake without MSNs^14, thus a siRNA-only group was not added to this study.
Bioluminescent imaging of mice (using Xenogen IVIS 100 biophotonic imaging system, STTARR, Toronto, Ontario, Canada) commenced seven days after injection of tumor cells in order to ensure engraftment, and continued once a week for four weeks. Mice were given a 100 μl IP injection of 20 mg/ml D-Luciferin (PerkinElmer, Waltham, MA). Ten minutes after the D-luciferin injection, mice were anesthetized with isoflurane (2%-5%) and placed in the biophotonic imager, and images were taken within two minutes. An alfalfa-free version of the regular rodent diet (alfalfa-free CA-1) was administered to the siQ mice to prevent autofluorescence from the regular diet.
IP injections of MSN+siRNA (siQ fluorescently labeled with ALEXAFLUOR® 647 or si419H) were conducted one week after the inoculation of Ovcar8-IP cells and done once or twice per week for a total of four weeks. Mice received 105 μl of 500 ng/μl MSN complexed with 15 μl of 10 μM siRNA per week, divided into one full or two half doses (n=4 and n=8, respectively). This is equivalent to […] MSN/week. Weekly 3 mg/kg IP cisplatin injections were given starting two weeks after initial inoculation of cells.
At completion of the experiment, all animals were euthanized via CO2 asphyxiation. […]
Statistics. All in vivo data was analyzed using one-way ANOVA with correction for multiple comparisons, comparing all groups to MSN-siQ treatment group. […]

[2] = system: Vimentin mRNA; assay: qPCR after YTZ3-15 delivery of siTwist in SUM 1315: Vimentin; type: cell-based, human; conditions: delivered via YTZ3-15; after one day
Method: Cell Culture, Transfection, and Stable Cell Line Production. SUM 1315 breast cancer cells were obtained from ATCC (Manassas, VA). Cells were maintained at 37° C., 5% CO2, and 90% humidity in a tissue culture incubator. Media for SUM 1315 cells consisted of a 50-50 mixture of DMEM and F12 media, supplemented with 5 μg/ml insulin, 10 ng/ml EGF, 5% fetal bovine serum, and 1% penicillin/streptomycin. Cells were passaged using 0.25% trypsin (Genesee Scientific, San Diego, CA) every 2-3 days as they reached confluency. […]
Quantitative PCR. […] RNA quantity and quality was measured and analyzed (with 260/280 nm and 260/230 nm spectra measurements) using a NanoDrop ND-1000 (Thermo Fisher Scientific, Waltham, MA). […] Quantitative RT-PCR was performed in quadruplicate using Maxima SYBR Green Master Mix (Thermo Fisher Scientific, Waltham, MA) in 25 μl reactions. […] Data were analyzed using Bio-Rad iQ5 software using the 2^−ΔΔ^Ct method and normalized to Actin. […]

si419: anti-TWIST siRNA; passenger 5′-GGACAAGCUGAGCAAGAUU-3′ (SEQ ID No: 1), guide 5′-AAUCUUGCUCAGCUUGUCCUU-3′ (SEQ ID No: 2) (listed as RNA, chemistry not fully specified)
change in tumor weight [1]: did not produce a statistically significant change in tumor weight | Vimentin mRNA level [2]: nearly undetectable
